According to ChEMBL document CHEMBL1201862, “PubChem BioAssay data set” (2004):
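96-well plates; 48 h exposure; 5 concentrations. Endpoints by linear interpolation between flanking doses. Not reached: highest tested concentration assigned. GI50 = concentration required for 50% inhibition of growth.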 The source made the active and inactive calls. No stated cut-off is given here; in the data, active = GI50 up to about 1.1 µM and inactive = higher.

Assays:
Experiment in all cases: growth of human tumour cells (NCI), 48 h
RXF 393 = system: RXF 393
MOLT-4 = system: MOLT-4
HCC 2998 = system: HCC 2998
NCI-H23 = system: NCI-H23
SK-MEL-5 = system: SK-MEL-5
OVCAR-8 = system: OVCAR-8
Malme-3M = system: Malme-3M
HOP-92 = system: HOP-92
SN12C = system: SN12C
HT-29 = system: HT-29
DLD-1 = system: DLD-1
OVCAR-4 = system: OVCAR-4
UACC-257 = system: UACC-257
RPMI-8226 = system: RPMI-8226
NCI-H460 = system: NCI-H460
NCI-H226 = system: NCI-H226
T47D = system: T47D
Hs-578T = system: Hs-578T
DU-145 = system: DU-145
MCF7 = system: MCF7

Measured: GI50

COc1cccc(/C=C(\NC(C)=O)c2nc3cc(Cl)ccc3[nH]2)c1
inactive: RXF 393 > 100 µM | MOLT-4 > 100 µM | HCC 2998 > 100 µM | NCI-H23 > 100 µM | SK-MEL-5 > 100 µM | OVCAR-8 > 100 µM | Malme-3M > 100 µM | HOP-92 59.3 µM | SN12C > 100 µM | HT-29 > 100 µM | DLD-1 > 100 µM | OVCAR-4 > 100 µM

CSc1snc2sc3c(Cl)nnnc3c12
inactive: RXF 393 12.3 µM | MOLT-4 2.98 µM | HCC 2998 6.01 µM | NCI-H23 18.3 µM | SK-MEL-5 16.7 µM | OVCAR-8 7.46 µM | Malme-3M 11.4 µM | UACC-257 12.8 µM | SN12C 15.3 µM | HT-29 4.84 µM | DLD-1 10 µM | RPMI-8226 15.6 µM | OVCAR-4 14.8 µM | NCI-H460 15.8 µM

CCC1(N=[N+]=[N-])C(=O)c2ccccc2N(C)C1=O (stereo unspecified)
inactive: MOLT-4 > 100 µM | HCC 2998 > 100 µM | NCI-H23 > 100 µM | SK-MEL-5 > 100 µM | OVCAR-8 > 100 µM | Malme-3M > 100 µM | HOP-92 > 100 µM | UACC-257 > 100 µM | SN12C > 100 µM | HT-29 > 100 µM | DLD-1 > 100 µM | OVCAR-4 > 100 µM | NCI-H460 > 100 µM

O=S(=O)(O)C(O)/C=C/c1ccccc1 (stereo unspecified)
inactive: RXF 393 > 100 µM | MOLT-4 > 100 µM | NCI-H226 > 100 µM | HCC 2998 > 100 µM | NCI-H23 > 100 µM | SK-MEL-5 > 100 µM | OVCAR-8 > 100 µM | Malme-3M > 100 µM | UACC-257 > 100 µM | SN12C > 100 µM | HT-29 > 100 µM | DLD-1 > 100 µM | OVCAR-4 > 100 µM

O=C1NC(=O)C(C(=O)C(=O)Nc2ccc(Cl)cc2Cl)C(=O)N1
inactive: MOLT-4 > 100 µM | HCC 2998 > 100 µM | SK-MEL-5 > 100 µM | OVCAR-8 > 100 µM | Malme-3M > 100 µM | HOP-92 36.8 µM | UACC-257 > 100 µM | DLD-1 > 100 µM | RPMI-8226 > 100 µM | OVCAR-4 > 100 µM | NCI-H460 > 100 µM

Cc1c(Cl)ccc2c1NC(=O)C2(O)CC(=O)c1cccc2ccccc12 (stereo unspecified)
inactive: RXF 393 99.3 µM | MOLT-4 35.2 µM | NCI-H226 > 100 µM | HCC 2998 > 100 µM | NCI-H23 > 100 µM | SK-MEL-5 34 µM | OVCAR-8 > 100 µM | Malme-3M > 100 µM | UACC-257 98.9 µM | SN12C > 100 µM | HT-29 43.4 µM | DLD-1 > 100 µM | RPMI-8226 28.9 µM | OVCAR-4 26.2 µM | NCI-H460 59.7 µM

O=C1O/C(=C(/Cl)c2c3ccccc3cc3ccccc23)c2ccccc21
inactive: RXF 393 33.3 µM | MOLT-4 7.53 µM | NCI-H226 26.7 µM | HCC 2998 30.9 µM | T47D 80.5 µM | Hs-578T 23 µM | NCI-H23 26.1 µM | DU-145 45.4 µM | SK-MEL-5 15.4 µM | OVCAR-8 23.4 µM | Malme-3M 48.1 µM | HOP-92 21.8 µM | UACC-257 33.2 µM | MCF7 32.1 µM | SN12C 26.1 µM | HT-29 13.1 µM | RPMI-8226 20.3 µM | OVCAR-4 17.2 µM | NCI-H460 26.5 µM

C=CC1=C(C)c2cc3[nH]c(cc4nc(cc5[nH]c(cc1n2)c(C)c5CCC(=O)N(CC)CC)C(CCC(=O)N(CC)CC)=C4C)c(C)c3C=C
inactive: RXF 393 75.9 µM | MOLT-4 > 100 µM | HCC 2998 > 100 µM | NCI-H23 > 100 µM | SK-MEL-5 > 100 µM | OVCAR-8 > 100 µM | Malme-3M > 100 µM | HOP-92 6.04 µM | UACC-257 > 100 µM | SN12C > 100 µM | HT-29 > 100 µM | DLD-1 > 100 µM | OVCAR-4 > 100 µM | NCI-H460 > 100 µM
